Test results reported in patent publication US20100267784A1, “NOVEL 4,5-DIHYDROISOXAZOLES WITH ESTROGENIC ACTIVITY” (priority 2007, published 2010).
Blank lines part the entries; values can stand above or below the molecule they belong to.

How the values were obtained:
ERβ [1] = biological target: T1, ERβ (Homo sapiens, UniProt Q92731); test: ERβ reporter (luciferase) transactivation assay in transfected HEK293 cells; format: cell-based; parameters: expressed in transfected cells; host or cells: HEK293; settings: for ERβ receptor activation relative to 10 nM E2 corresponding 100: sample concentration 10 μM, 24 hours, mean of at least three independent transfections
Procedure, shortened: (§1)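 HEK293 cells in phenol-free DMEM with 5% delipidated FBS were calcium-phosphate transfected for 4 h with ERα or ERβ vector, pERE2TATA-LUC reporter and pCMVβ control. Test compound (10 μM) or vehicle was applied for 24 h, then luciferase and β-galactosidase were measured. Values are means ±SEM of ≥3 transfections.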

ERα [2] = biological target: T2, ERα (Homo sapiens, UniProt P03372); test: Competitive binding against [6,7-3H(N)]estradiol in COS-1 cells transfected with human ERα; settings: for IC50: ERα IC50, COS-1 cells, competition against labeled E2, 2 hours at 37° C.; for ERα RBA (relative binding affinity): relative to E2 = 100.0
T2 sequence (P03372 1-595): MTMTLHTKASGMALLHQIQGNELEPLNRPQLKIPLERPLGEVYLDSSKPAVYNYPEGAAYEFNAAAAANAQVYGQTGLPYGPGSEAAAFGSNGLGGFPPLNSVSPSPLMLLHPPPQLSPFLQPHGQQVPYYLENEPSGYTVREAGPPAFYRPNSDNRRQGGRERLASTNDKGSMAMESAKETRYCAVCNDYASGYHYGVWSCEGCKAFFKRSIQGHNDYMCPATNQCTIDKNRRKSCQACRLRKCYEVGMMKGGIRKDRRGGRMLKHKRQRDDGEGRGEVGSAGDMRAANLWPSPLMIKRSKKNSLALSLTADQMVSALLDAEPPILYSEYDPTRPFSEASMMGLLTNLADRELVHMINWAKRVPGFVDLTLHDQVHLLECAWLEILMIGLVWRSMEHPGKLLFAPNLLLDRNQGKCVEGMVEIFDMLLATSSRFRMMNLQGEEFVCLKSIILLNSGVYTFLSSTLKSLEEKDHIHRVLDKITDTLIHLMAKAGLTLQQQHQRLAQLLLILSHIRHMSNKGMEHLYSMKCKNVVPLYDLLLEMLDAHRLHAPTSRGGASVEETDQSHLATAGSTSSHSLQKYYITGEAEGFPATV
Description: (§2) Determination of Relative Binding Affinity (RBA).
(§3) Relative binding affinities (RBA) were measured by a competitive assay against [6,7-^3H(N)]estradiol (PerkinElmer) in transsiently transfected COS-1 cells. […] After 2 hours of incubation at 37° C. the medium was removed. The cells were removed from the wells to 150 μl of 1× phosphate buffered saline (PBS), transferred to Eppendorf tubes and centrifuged at 4° C. using 4000 g for 5 min, and then washed twice with 150 μl of PBS. The cell pellets were dissolved to 50 μl of 0.5M NaOH and incubated for 15 min at 56° C., after which the samples were transferred to liquid twinkle tubes and treated with 3 ml of OptiPhase HiSafe 3 twinkle solution (PerkinElmer).

ERβ [3] = biological target: T1, ERβ; test: Competitive binding against [6,7-3H(N)]estradiol in COS-1 cells transfected with human ERβ; settings: for IC50: ERβ IC50, COS-1 cells, competition against labeled E2, 2 hours at 37° C.; for ERβ RBA (relative binding affinity): relative to E2 = 100.0
Description: as §2, §3

ERα [4] = biological target: T2, ERα; test: ERα reporter (luciferase) transactivation assay in transfected HEK293 cells; format: cell-based; parameters: expressed in transfected cells; host or cells: HEK293; settings: sample concentration 10 μM, 24 hours, mean of at least three independent transfections
Procedure, shortened: as §1

T1 sequence (Q92731 whole entry): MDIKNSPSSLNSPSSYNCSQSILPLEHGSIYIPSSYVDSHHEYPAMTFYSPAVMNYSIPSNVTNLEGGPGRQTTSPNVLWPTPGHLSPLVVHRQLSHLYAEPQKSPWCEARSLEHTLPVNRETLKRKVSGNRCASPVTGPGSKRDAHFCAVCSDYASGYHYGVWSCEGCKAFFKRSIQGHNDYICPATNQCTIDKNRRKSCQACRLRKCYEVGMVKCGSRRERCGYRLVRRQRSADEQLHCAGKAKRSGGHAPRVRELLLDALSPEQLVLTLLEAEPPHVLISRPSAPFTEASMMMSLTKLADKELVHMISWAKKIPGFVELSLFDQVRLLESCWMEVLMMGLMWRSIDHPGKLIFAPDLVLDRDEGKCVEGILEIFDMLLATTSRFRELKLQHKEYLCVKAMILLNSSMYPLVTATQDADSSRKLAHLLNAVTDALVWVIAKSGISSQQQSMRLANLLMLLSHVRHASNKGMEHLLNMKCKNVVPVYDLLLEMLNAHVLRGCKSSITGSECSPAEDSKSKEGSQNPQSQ

ERβ receptor activation relative to 10 nM E2 corresponding 100 (ERβ [1]): 44.7% | IC50 (ERα [2]): 12.5 nM | ERα RBA (relative binding affinity) (ERα [2]): 15.68% | IC50 (ERβ [3]): 2050 nM | ERβ RBA (relative binding affinity) (ERβ [3]): 0.096% | ERα receptor activation relative to 10 nM E2 corresponding 100 (ERα [4]): 103.6%
Structure (SMILES): Oc1ccc(CCCC2=NOC(c3ccccc3)C2)cc1 (single isomer, unassigned) [88a, 3-[3-(4-Hydroxy-phenyl)-propyl]-5-phenyl-4,5-dihydroisoxazole]

ERβ receptor activation relative to 10 nM E2 corresponding 100 (ERβ [1]): 77.1% | IC50 (ERα [2]): 30 nM | ERα RBA (relative binding affinity) (ERα [2]): 6.533% | IC50 (ERβ [3]): 1250 nM | ERβ RBA (relative binding affinity) (ERβ [3]): 0.157% | ERα receptor activation relative to 10 nM E2 corresponding 100 (ERα [4]): 65.0%
Structure (SMILES): Oc1ccc(CCCC2=NOC(c3ccccc3)C2)cc1 (single isomer, unassigned) [88b, 3-[3-(4-Hydroxy-phenyl)-propyl]-5-phenyl-4,5-dihydroisoxazole]

ERβ receptor activation relative to 10 nM E2 corresponding 100 (ERβ [1]): 64.8% | IC50 (ERα [2]): 250 nM | ERα RBA (relative binding affinity) (ERα [2]): 0.784% | IC50 (ERβ [3]): 3100 nM | ERβ RBA (relative binding affinity) (ERβ [3]): 0.063% | ERα receptor activation relative to 10 nM E2 corresponding 100 (ERα [4]): 88.8%
Structure (SMILES): CC1(c2ccccc2)CC(CCCc2ccc(O)cc2)=NO1 (single isomer, unassigned) [90a, 3-[3-(4-Hydroxy-phenyl)-propyl]-5-methyl-5-phenyl-4,5-dihydro-isoxazole]

ERβ receptor activation relative to 10 nM E2 corresponding 100 (ERβ [1]): 30.1% | IC50 (ERα [2]): 23000 nM | ERα RBA (relative binding affinity) (ERα [2]): 0.009% | IC50 (ERβ [3]): 20000 nM | ERβ RBA (relative binding affinity) (ERβ [3]): 0.010% | ERα receptor activation relative to 10 nM E2 corresponding 100 (ERα [4]): 86.5%
Structure (SMILES): CC1(c2ccccc2)CC(CCCc2ccc(O)cc2)=NO1 (single isomer, unassigned) [90b, 3-[3-(4-Hydroxy-phenyl)-propyl]-5-methyl-5-phenyl-4,5-dihydro-isoxazole]

ERβ receptor activation relative to 10 nM E2 corresponding 100 (ERβ [1]): −3.1% | IC50 (ERα [2]): 1900 nM | ERα RBA (relative binding affinity) (ERα [2]): 0.103% | ERα receptor activation relative to 10 nM E2 corresponding 100 (ERα [4]): 44.3%
Structure (SMILES): c1ccc(CCCC2=NOC(c3ccccc3)C2)cc1 (single isomer, unassigned) [113a, 5-Phenyl-3-(3-phenyl-propyl)-4,5-dihydro-isoxazole]

melting point: 97.8 to 98.6 °C
Structure (SMILES): COc1ccc(C2=NOC(C)(Cc3ccccc3)C2)cc1 (stereo not shown) [compound 53, 5-Benzyl-3-(4-methoxyphenyl)-5-methyl-4,5-dihydro-isoxazole]

melting point: 109.3 to 110.2 °C
Structure (SMILES): COc1ccccc1C1=NOC(Cc2ccccc2)(c2ccccc2)C1 (stereo not shown) [compound 74, 5-Benzyl-3-(2-methoxyphenyl)-5-phenyl-4,5-dihydro-isoxazole]

melting point: 120.3 to 122.1 °C
Structure (SMILES): Clc1ccc(C2=NOC(Cc3ccccc3)(c3ccccc3)C2)cc1 (stereo not shown) [compound 76, 5-Benzyl-3-(4-chlorophenyl)-5-phenyl-4,5-dihydro-isoxazole]

melting point: 94.4 to 95.2 °C
Structure (SMILES): COc1cccc(C2=NOC(Cc3ccccc3)(c3ccccc3)C2)c1 (stereo not shown) [compound 77, 5-Benzyl-5-phenyl-3-(3-methoxyphenyl)-4,5-dihydro-isoxazole]

melting point: 120.6 to 122.8 °C
Structure (SMILES): Oc1cccc(CCC2=NOC(Cc3ccccc3)C2)c1 (stereo not shown) [compound 92, 5-Benzyl-3-[2-(3-hydroxy-phenyl)-ethyl]-4,5-dihydro-isoxazole]

melting point: 143 to 144.8 °C
Structure (SMILES): Oc1ccc(CCC2=NOC(Cc3ccccc3)C2)cc1 (stereo not shown) [compound 93, 5-Benzyl-3-[2-(4-hydroxy-phenyl)-ethyl]-4,5-dihydro-isoxazole]

melting point: 124.8 to 126.4 °C
Structure (SMILES): Oc1ccc(CC2CC(CCc3ccccc3)=NO2)cc1 (stereo not shown) [compound 94, 5-(4-Hydroxy-benzyl)-3-phenethyl-4,5-dihydro-isoxazole]

melting point: 124.8 to 126.4 °C
Structure (SMILES): Oc1ccccc1CCC1=NOC(Cc2ccc(F)cc2)C1 (stereo not shown) [compound 97, 5-(4-Fluoro-benzyl)-3-[2-(2-hydroxy-phenyl)-ethyl]-4,5-dihydro-isoxazole]

The next lines start with the molecule.

Structure (SMILES): COc1ccc(C2=NOC(Cc3ccc(OC)c(OC)c3)C2)cc1 (stereo not shown) [16ab, 5-(3,4-Dimethoxybenzyl)-3-(4-methoxyphenyl)-4,5-dihydroisoxazole]
melting point: 88.1 to 89.2 °C | activation at 10 µM (ERβ [1]; HEK293, 24 h, read-out: ERβ receptor activation relative to 10 nM E2 corresponding 100, sample concentration 10 μM, mean of at least three independent transfections): 7.3% | ERα receptor activation relative to 10 nM E2 corresponding 100 (ERα [4]): −4.0%

Structure (SMILES): CCc1ccc(CC2CC(c3ccc(Cl)cc3)=NO2)cc1 (stereo not shown) [compound 34, 3-(4-Chlorophenyl)-5-(4-ethylbenzyl)-4,5-dihydroisoxazole]
melting point: 117.1 to 119.2 °C

Structure (SMILES): COc1ccccc1CC1CC(c2ccc(Cl)cc2)=NO1 (stereo not shown) [compound 36, 3-(4-Chlorophenyl)-5-(2-methoxybenzyl)-4,5-dihydroisoxazole]
melting point: 109.9 to 111.2 °C

Structure (SMILES): COc1ccc(CC2CC(c3ccc(Cl)cc3)=NO2)cc1 (stereo not shown) [compound 38, 3-(4-Chlorophenyl)-5-(4-methoxybenzyl)-4,5-dihydroisoxazole]
melting point: 126.2 to 127.3 °C

Structure (SMILES): COc1ccc(CC2CC(c3ccc(Cl)cc3)=NO2)cc1OC (stereo not shown) [compound 39, 3-(4-Chlorophenyl)-5-(3,4-dimethoxybenzyl)-4,5-dihydroisoxazole]
melting point: 89 to 90.4 °C

Structure (SMILES): Clc1ccc(C2=NOC(Cc3cccc4ccccc34)C2)cc1 (stereo not shown) [compound 41, 3-(4-Chlorophenyl)-5-naphthalen-1-ylmethyl-4,5-dihydro-isoxazole]
melting point: 127.9 to 130.9 °C

Structure (SMILES): Clc1cccc(Cl)c1C1=NOC(Cc2ccccc2)C1 (stereo not shown) [compound 42, 5-Benzyl-3-(2,6-dichlorophenyl)-4,5-dihydroisoxazole]
melting point: 90 to 90.5 °C

Structure (SMILES): COc1ccc(CC2CC(c3c(Cl)cccc3Cl)=NO2)cc1 (stereo not shown) [compound 43, 3-(2,6-Dichlorophenyl)-5-(4-methoxybenzyl)-4,5-dihydroisoxazole]
melting point: 90.1 to 90.6 °C

Structure (SMILES): CC1(Cc2ccccc2)CC(c2ccc3ccccc3c2)=NO1 (stereo not shown) [compound 57, 5-Benzyl-3-naphthalen-2-yl-5-methyl-4,5-dihydro-isoxazole]
melting point: 144.8 to 146.3 °C

Structure (SMILES): COc1ccc(C2=NOC(CCc3ccccc3)C2)cc1 (stereo not shown) [compound 60, 3-(4-Methoxy-phenyl)-5-phenethyl-4,5-dihydro-isoxazole]
melting point: 69.7 to 71.9 °C

Structure (SMILES): Fc1ccc(C2=NOC(CCc3ccccc3)C2)cc1 (stereo not shown) [compound 62, 3-(4-Fluoro-phenyl)-5-phenethyl-4,5-dihydro-isoxazole]
melting point: 69.8 to 71.2 °C

Structure (SMILES): Clc1ccc(C2=NOC(CCc3ccccc3)C2)cc1 (stereo not shown) [compound 63, 3-(4-Chloro-phenyl)-5-phenethyl-4,5-dihydro-isoxazole]
melting point: 74.8 to 75.7 °C

Structure (SMILES): Fc1ccccc1C1=NOC(Cc2ccccc2)(c2ccccc2)C1 (stereo not shown) [compound 75, 5-Benzyl-3-(2-fluorophenyl)-5-phenyl-4,5-dihydro-isoxazole]
melting point: 134.3 to 135.2 °C

Structure (SMILES): c1ccc(CC2CC(c3ccccc3)=NO2)cc1 (stereo not shown) [compound 107, 5-Benzyl-3-phenyl-4,5-dihydroisoxazole]
melting point: 67 to 68 °C

Structure (SMILES): c1ccc(CCC2=NOC(c3ccccc3)C2)cc1 (stereo not shown) [compound 110, 3-Phenethyl-5-phenyl-4,5-dihydroisoxazole]
melting point: 35 to 36.3 °C

Structure (SMILES): c1ccc(CCC2CC(c3ccccc3)=NO2)cc1 (stereo not shown) [compound 111, 5-Phenethyl-3-phenyl-4,5-dihydroisoxazole]
melting point: 66.1 to 67.2 °C

Structure (SMILES): c1ccc(CCC2=NOC(CCc3ccccc3)C2)cc1 (stereo not shown) [compound 116, 3,5-Di-phenethyl-4,5-dihydroisoxazole]
melting point: 56.2 to 58 °C
